Assay results: patent publication US7452693B2, “Discrete acyltransferases associated with type I polyketide synthases and methods of use” (Wisconsin Alumni Research Foundation, priority 2001, dated 2008)

Experiments:
[1] = tested on: HELA S3, sarcoma 180, B-16, Colon 26, and leukemia P388; settings: cited from earlier work
[2] = tested on: S. atroolivaceus; assay: Growth inhibition of S. atroolivaceus by antibiotics; format: cell-based, Streptomyces atroolivaceus; settings: for concentration for complete inhibition of growth: S. atroolivaceus; for sensitivity of S. atroolivaceus: in words
Procedure: S. atroolivaceus grows very well at 30° C.; it doesn't grow at temperature beyond 35° C. […] Thus, E. coli—Streptomyces shuttle vectors pOJ260 (suicide vector, Am^R) and pKC1139 (self-replicating vector, Am^R) were chosen to make the gene-disruption constructs pYC12 and pYC20, respectively. The concentration of antibiotic (Am) for selection of transformants/exconjugates is 50 μg/ml.

Structure (SMILES)	activity against drug-resistant tumors ([1]; murine models inoculated with tumors resistant to cisplatin, doxorubicin, mitomycin, or cyclophosphamide)	antitumor activity ([1]; murine tumor models in vivo)	concentration for complete inhibition of growth [2]	sensitivity of S. atroolivaceus [2]	sensitivity of S. atroolivaceus ([2]; listed as apromycin)
C/C1=C\[C@@H](O)C(=O)/C=C/C=C\c2csc(n2)[C@@H](C)NC(=O)C[C@@]2(CC1)[S+]([O-])SC(=O)[C@]2(C)O (stereo partly shown) [Lnm, Leinamycin]	active	potent antitumor activity			
CN[C@@H]1[C@@H](O[C@H]2O[C@H](CO)[C@@H](N)[C@H](O)[C@H]2O)OC2C[C@@H](N)[C@@H](O[C@H]3[C@H](O)[C@@H](O)[C@H](N)C[C@@H]3N)OC2[C@@H]1O (stereo partly shown) [apramycin]			10 µg/mL	sensitive	highly sensitive
C=C(NC(=O)C(=C)NC(=O)c1csc(C2=N[C@@H]3c4csc(n4)[C@H]4NC(=O)c5csc(n5)[C@H]([C@](C)(O)[C@@H](C)O)NC(=O)[C@H]5CSC(=N5)/C(=C/C)NC(=O)[C@H]([C@@H](C)O)NC(=O)c5csc(n5)[C@]3(CC2)NC(=O)[C@H](C)NC(=O)C(=C)NC(=O)[C@H](C)NC(=O)[C@H]([C@@H](C)CC)N[C@@H]2C=Cc3c([C@H](C)O)cc(nc3[C@H]2O)C(=O)O[C@@H]4C)n1)C(N)=O [thiostrepton]			3 µg/mL	highly sensitive	
